# System: Mycobacterium tuberculosis
# Experiment: Antitubercular activity against Mycobacterium tuberculosis H37Rv expressing DsRed using 7H9-Ty-10BT medium after 6 days by 2-fold serial dilution method
# Format: functional
# Conditions: 144 h
row,SMILES,MIC [µM]
1,CN(Cc1nnc(-c2ccco2)o1)Cc1c(F)cccc1Cl,0.8
2,c1csc(-c2nnc(Cc3cccc4ccccc34)o2)c1,0.4
3,CC1CCc2ccccc2N1Cc1nc(-c2ccsc2)no1 (stereo unspecified),2.2

# System: not listed separately
# Experiment: Aqueous solubility of the compound at pH 6
# Format: physicochemical
# Conditions: buffer
row,SMILES,solubility [µg/mL]
1,CN(Cc1nnc(-c2ccco2)o1)Cc1c(F)cccc1Cl.O=C(O)/C=C\C(=O)O,687

# System: not listed separately
# Experiment: Metabolic stability in rat liver microsomes at 2 uM after 30 mins by LC-MS method
# Format: ADME, microsome
# Conditions: 0.5 h
row,SMILES,Stability
1,c1coc(-c2nnc(SCc3cccc4ccccc34)o2)c1,Stable
2,CN(Cc1nnc(-c2cccs2)o1)Cc1c(F)cccc1Cl,Stable
3,CN(Cc1nnc(-c2ccco2)o1)Cc1ccccc1Cl,Stable
4,c1ccc(-c2nnc(CN3CCCC3c3ccccc3)o2)cc1 (stereo unspecified),Stable
5,c1ccc(Cc2nnc(-c3cccs3)o2)cc1,Stable
6,CN(Cc1ccccc1)Cc1nnc(-c2cccs2)o1,Stable
7,c1ccc(-c2nnc(CN3CCc4ccccc43)o2)cc1,Stable
8,CN(Cc1nnc(-c2ccco2)o1)Cc1c(F)cccc1Cl,Stable
9,FC(F)(F)c1ccc(-c2nnc(CN3CCCc4ccccc43)o2)cc1,Stable
10,CN(Cc1ccc(C(F)(F)F)cc1)Cc1nnc(-c2cccs2)o1,Stable
11,CN(CCc1c(F)cccc1Cl)c1nnc(-c2ccco2)o1,Stable
12,Fc1ccc(-c2nnc(CN3CCOc4ccccc43)o2)cc1,Stable
13,CN(Cc1nnc(-c2ccco2)s1)Cc1c(F)cccc1Cl,Stable
14,CN(Cc1ccccc1)Cc1nnc(-c2ccco2)o1,Stable
15,CN(Cc1ccc(F)cc1)Cc1nnc(-c2ccccc2)o1,Stable
16,c1csc(-c2nnc(CN3Cc4ccccc4C3)o2)c1,Stable
17,CN(Cc1ccc(C(F)(F)F)cc1)Cc1nnc(-c2ccccc2)o1,Stable
18,Fc1cccc(Cl)c1COCc1nnc(-c2ccco2)o1,Stable
19,c1coc(-c2nnc(Cc3cccc4ccccc34)o2)c1,Stable
20,c1ccc(C2CCCN2Cc2nnc(-c3cccs3)o2)cc1 (stereo unspecified),Stable
21,Fc1cccc(Cl)c1CNCc1nnc(-c2ccco2)o1,Stable

row,SMILES,Stability
1,CN(Cc1nnc(-c2ccco2)o1)C(=O)c1c(F)cccc1Cl,Stable
2,Fc1ccc(-c2nnc(CN3CCCc4ccccc43)o2)cc1,Stable
3,c1ccc(-c2nnc(CN3CCOc4ccccc43)o2)cc1,Stable
4,c1csc(-c2nnc(Cc3cccc4c3OCCO4)o2)c1,Stable
5,c1csc(-c2nnc(Cc3cccc4ccccc34)o2)c1,Stable
6,FC(F)(F)c1ccc(-c2nnc(CN3CCOc4ccccc43)o2)cc1,Stable
7,c1ccc(-c2nnc(CN3CCc4ccccc4C3)o2)cc1,Stable
8,c1csc(-c2nnc(CN3CCc4ccccc4C3)o2)c1,Stable
9,CC1CCc2ccccc2N1Cc1nc(-c2ccsc2)no1 (stereo unspecified),Stable
10,c1csc(-c2nnc(Cc3ccc4ccccc4c3)o2)c1,Stable
11,FC(F)(F)c1ccc(-c2nnc(CN3CCc4ccccc4C3)o2)cc1,Stable
12,c1csc(-c2nnc(CN3CCCc4ccccc43)o2)c1,Stable
13,c1csc(-c2nnc(CN3CCc4ccccc43)o2)c1,Stable
14,CN(Cc1nnc(-c2ccco2)o1)CC1CCCCC1,Stable
15,Fc1ccc(-c2nnc(CN3CCc4ccccc4C3)o2)cc1,Stable
16,c1csc(-c2nnc(COc3ccc4c(c3)OCO4)o2)c1,Stable
17,c1ccc(-c2nnc(CN3Cc4ccccc4C3)o2)cc1,Stable
18,CN(Cc1nnc(-c2ccccc2)o1)Cc1c(F)cccc1Cl,Stable
19,c1csc(-c2nnc(CN3CCOc4ccccc43)o2)c1,Stable
20,c1ccc(-c2nnc(CN3CCCc4ccccc43)o2)cc1,Stable

# System: not listed separately
# Experiment: Aqueous solubility of the compound at pH 7.4
# Format: physicochemical
# Conditions: buffer
row,SMILES,solubility thermodynamic [µg/mL]
1,CN(Cc1nnc(-c2ccco2)o1)Cc1c(F)cccc1Cl.O=C(O)/C=C\C(=O)O,717

# Source: ChEMBL document CHEMBL4219239, “Synthesis and biological evaluation of aryl-oxadiazoles as inhibitors of Mycobacterium tuberculosis” (Bioorg Med Chem Lett, 2018)
